Results reported in US4223031A, “Azolopyrimidinones” (priority 1978, dated 1980).
Where two headings read alike, the source gives them in different places.

Experiments:
guinea pig trachea = assay: relaxation of the spontaneous tonus of the isolated guinea pig trachea (tracheal spiral) in vitro; settings: for relaxation of the spontaneous tonus of the guinea pig trachea in vitro: guinea pig trachea / tracheal spiral, result in words
Protocol: The new compounds of Formulas III and IV are also considered part of the present invention since they are useful as intermediates for the production of the substances of Formula I. Some of the substances of Formulas III and IV also have biological utility in addition to their utility as intermediates. […] It is 13.2 times as potent as theophylline in relaxing the spontaneous tonus of the isolated guinea pig tracheal spiral. […] In both instances, the drug was administered orally.

[1] = system: passive cutaneous anaphylaxis reaction (PCA); assay: passive cutaneous anaphylaxis reaction (PCA) in the rat; assay type: in vivo; settings: for ED50 / PCA Response, percent inhibition at the dose specified: rat; for ED50: read-out: PCA Response, ED 50; for antiallergic activity: rat PCA, result in words
Protocol: Twelve days after injection, the serum is collected and the antibody titer is determined. The sera which contain sufficient antibody to cause a 10 mm. spot in the dorsal skin of the rat in the PCA test after a 10-fold dilution are pooled. […] The selected reaginic anti-sera are stored frozen until use. For carrying out the test, groups of 5 to 10 male Sprague-Dawley (Carworth Farms) rats, each rat weighing 100-150 g., are used. Forty-eight hours prior to the test, the animals are passively sensitized by intradermal injection of 0.1 ml. of the above diluted antiserum at various locations on the shaved skin of the back. A dilution of antiserum is used so that a spot following challenge of 20-25 mm. in diameter is obtained. Challenge consists of an intravenous injection of 25 mg./kg. of body weight of egg albumin and a like amount of Evan's blue dye in saline. […] A latent period of 48 hrs. is allowed before the animals are treated with the test drug administered by either intraperitoneal or intravenous injection or orally by gavage. Challenge as described above is given 15 min. subsequent to treatment with the test drug. The response to the antigen challenge in the sensitized localities on the skin is an increased capillary permeability and leakage of the blue dye into the area surrounding the sensitized site. The PCA response is scored by measuring the mean spot diameter on the excised and reversed skin 20-30 min. after challenge. In each experiment a group of control animals receiving no drug is employed. The percent inhibition of the PCA is calculated by determining the mean diameters of the spots in the control and treated animals and computing the difference between the squares of the mean diameters of the control animals and the treated animals and expressing this difference as a percentage of the square of the mean diameter of the control animals. Results are expressed as percent inhibition. […] In other modifications, various time intervals are allowed between drug treatment and challenge to ascertain the duration of drug effect.

in vivo = settings: po, rat, treated orally, read-out: approximate LD50

Structure (SMILES)	relaxation of the spontaneous tonus of the guinea pig trachea in vitro (guinea pig trachea)	ED50 ([1]; po, p.o.)	also measured
Cc1csc(NC=C(C#N)C#N)n1 [Example 5, 2-[[(4-methylthiazol-2-yl)amino]methylene]propanedinitrile]	substantial tracheal relaxant action	–	potency relative to theophylline in relaxing the spontaneous tonus of the isolated guinea pig tracheal spiral (guinea pig trachea; isolated guinea pig tracheal spiral): 13.2 times as potent as theophylline
N#CC(=CNc1nc2ccccc2s1)c1nnn[nH]1 [Example 14, N-[2-Cyano-2-(1H-tetrazol-5-yl)ethenyl]-benzothiazol-2-amine]	–	32 mg/kg	antiallergic activity [1]: antiallergic activity similar to those substances of Formula I
N=c1c(-c2nnn[nH]2)cnc2[nH]cnn12 [Example 15, 3,7-Dihydro-6-(1H-tetrazol-5-yl)-s-triazolo-[1,5-a]pyrimidin-7-imine]	inactive	–	PCA Response, percent inhibition at the dose specified ([1]; 10 mg/kg, p.o.): 36.1%
Cc1csc(NC=C(C#N)c2nnn[nH]2)n1 [Example 17, 3-[(4-Methylthiazol-2-yl)amino]-2-(1H-tetrazol-5-yl)-2-propenenitrile]	–	–	antiallergic activity [1]: antiallergic activity similar to those substances of Formula I; PCA Response, percent inhibition at the dose specified ([1]; 25 mg/kg, p.o.): 36.7%
N=c1c(-c2nnn[nH]2)cnc2sccn12 [Example 22, 6-(1H-Tetrazol-5-yl)-5H-thiazole[3,2-a]-pyrimidine-5-imine]	–	–	PCA Response, percent inhibition at the dose specified ([1]; 10 mg/kg, p.o.): 22.4%
Cl.N=c1c(-c2nnn[nH]2)cnc2sc3ccccc3n12 [Example 23, 3-(1H-Tetrazol-5-yl)-4H-pyrimido[2,1-b]-benzothiazol-4-imine Hydrochloride]	cause relaxation	2.9 mg/kg	–
O=c1c(-c2nnn[nH]2)cnc2sc3ccccc3n12 [Example 24, 3-(1H-Tetrazol-5-yl)-4H-pyrimido[2,1-b]-benzothiazol-4-one]	cause relaxation	0.064 mg/kg	LD50 (in vivo): 2000 to 5000 mg/kg; ED50 ([1]; iv, i.v.): 0.0049 mg/kg
Cc1cc(C)c2sc3ncc(-c4nnn[nH]4)c(=O)n3c2c1 [Example 25, 7,9-Dimethyl-3-(1H-tetrazol-5-yl)-4H-pyrimido[2,1-b]benzothiazol-4-one]	cause relaxation	–	–
Cc1csc2ncc(-c3nnn[nH]3)c(=O)n12 [Example 28, 3-Methyl-6-(1H-tetrazol-5-yl)-5H thiazolo[3,2-a]pyrimidine-5-one]	cause relaxation	–	PCA Response, percent inhibition at the dose specified ([1]; 25 mg/kg, p.o.): 39%
COc1ccc2c(c1)sc1ncc(-c3nnn[nH]3)c(=O)n12 [Example 31, 8-Methoxy-3-(1H-tetrazol-5-yl)-4H-pyrimido-[2,1-b]benzothiazol-4-one]	cause relaxation	1.88 mg/kg	–
Cc1cc2sc3ncc(-c4nnn[nH]4)c(=O)n3c2cc1C [Example 32, 7,8-Dimethyl-3-(1H-tetrazol-5-yl)-4H-pyrimido[2,1-b]benzothiazol-4-one]	cause relaxation	–	PCA Response, percent inhibition at the dose specified ([1]; 25 mg/kg, p.o.): 34.9%
O=c1c(-c2nnn[nH]2)cnc2sccn12 [Example 33, 6-(1H-Tetrazol-5-yl)-5H-thiazolo[3,2-a]-pyrimidin-5-one]	–	–	PCA Response, percent inhibition at the dose specified ([1]; 10 mg/kg, p.o.): 57%
